This is an account of results in patent publication US7807462B2, “Method for producing a functional neuron” (University of Medicine and Dentistry of New Jersey, priority 2004, dated 2010).

The subject of test [1] is MSC treated with retinoic acid for 6 days (functional neurons). As to the kind of experiment: Immunofluorescence/immunohistochemistry for substance P (SP) in RA-treated MSC. The test is classed as cell-based, human. How it is done:
Administration or implantation of cultured neurons in a damaged tissue, in vivo, is influenced by the microenvironment. Thus, to determine whether a functional neuron could be influenced to express a particular neurotransmitter, expression of the preprotachykinin-I gene (PPT-I), which encodes the neurotransmitter substance P (SP), was analyzed. Regulation of the PPT-I gene has been studied in the context of inflammatory mediators that are presumed to be at the site of neural injury. […] Furthermore the receptor for IL-1 has been reported in neurons (Coti, et al. (2004) Frontier Biosci. 9:1433-1449). MSC, treated with retinoic acid for 6 days, were stimulated with 10 ng/mL of IL-1α for 16 hours and the cells studied for SP production by immunofluorescence using anti-SP. Treated cells were also labeled for synaptovesicle 2 to determine if SP is stored in synaptic vesicle. […] Retinoic acid-treated MSC were labeled with anti-SP and anti-synaptovesicle. The two labels were overlaid to gain insight as to the location of SP. […]
MSC on superfrost slides were treated with RA. […] The latter determined whether SP was stored in synaptic vesicles. SP and anti-synaptic vesicle protein 2 were detected with anti-rabbit IgG FITC and anti-mouse IgG1 κ PE, respectively. […]

The subject of test [2] is adult human mesenchymal stem cells (MSC). Briefly: Microscopic examination of morphology of retinoic acid-treated MSC. The format is cell-based. As to conditions: RA 30 μM. How it is done:
By way of illustration, MSC were treated with all-trans-retinoic acid and examined microscopically at 400× magnification. The purpose was to observe morphological changes as the cells were exposed to a known differentiating agent.

The test system is the same in test [3]. Briefly: Whole-cell patch clamp electrophysiological recordings of RA-treated MSC. As to conditions: for postsynaptic current amplitude / postsynaptic current decay time / postsynaptic current frequency / postsynaptic current half rise time: voltage clamp.
The test system is the same in test [4]. As to the kind of experiment: Immunofluorescence for neural-specific markers in RA-treated MSC. The test is classed as cell-based. How it is done: It was subsequently determined whether the retinoic acid-treated MSC express neuron-specific proteins. Cells were labeled for MAP2, which predominantly labels the cell bodies and dendrites; Neurofilament to stain for cell bodies and axons; and nestin for changes in morphology to neuronal cells. Synaptophysin was also analyzed as it is an indicator of synaptic regions. Labeling with anti-MAP2 and anti-synaptophysin were performed at different times following retinoic acid treatment. Untreated MSCs stained dim with MAP2, but negative for synaptophysin. In contrast, retinoic acid-treated cells stained bright for MAP2 at each time point, i.e., day 6, day 9 and day 12 retinoic acid treatment. […] This pattern of synaptophysin increased up to day 12 of treatment. Patterns were similar in ten different experiments, each with MSC from a different bone marrow donor.
RA-treated MSCs were washed with PBS (pH 7.4) and incubated for 1 hour at room temperature with the following antibodies: rabbit anti-MAP2 and/or synaptophysin monoclonal antibody at final concentrations of 1/500 and 1/200 respectively. In other labeling studies, cells were incubated with anti-GFAP, anti-neurofilament or anti-nestin, each at 1/500 final concentration. Antibodies were diluted in 0.05% TWEEN™/PBS (PBT) for membrane permeabilization. Primary antibodies were developed with secondary FITC-goat anti-rabbit IgG and PE-rat anti-mouse κ, both at final concentrations of 1/500. Secondary antibodies were incubated for 45 minutes at room temperature in the dark. After labeling, cells were fixed with 0.4% paraformaldehyde and then covered with VECTASHIELD®. Slides were immediately examined on a 3-color immunofluorescence microscope (NIKON® Instruments Inc., Melvelle, N.Y.).

The test system of test [5] is PPT-I gene expression in retinoic acid-treated MSC. Briefly: In situ hybridization for β-PPT-I in RA-treated MSC. The test is classed as cell-based, human. As to conditions: cocktail of three antisense oligomers; three bone marrow donors. The procedure:
Thus, it was determined whether the PPT-I gene was expressed in retinoic acid-treated MSC by in situ hybridization with a cocktail of three oligomers.
MSC were cultured as above on superfrost slides and then washed with 0.05% PBT. Cells were hybridized by incubation with 500 μL of hybridization buffer (Sigma, St. Louis, Mo.). After 2 hours, slides were incubated with 200 μL of hybridization buffer containing a cocktail (200 ng/mL) of denatured biotin-conjugated β-PPT-1-specific oligo probes based on GENBANK Accession No. U37529 (Table 1). Control slides were incubated with a mixture of similar oligos in the sense orientations. Slides were subsequently incubated overnight at 37° C. in a humid chamber. Slides were washed with SSC solution and hybrids detected by incubation for 1 hour at room temperature with FITC-streptavidin at 1/500 dilution. Slides were covered with PBS and immediately examined with an immunofluorescence microscope.

Setting [6] is: functional neurons in culture for 6 days.

With `CC1=C(/C=C/C(C)=C/C=C/C(C)=C/C(=O)O)C(C)(C)CCC1` [retinoic acid, All-trans-retinoic acid], in test [1] (no IL-1α stimulation), the “fluorescence for SP in unstimulated treated MSC” value is listed as “dim fluorescence”. Further, the “morphology of treated MSC” value in test [2] (day 4) is “neuron-like structures”; in test [2] (day 7), “cell bodies with long thin processes and growth cones”; in test [2] (treated 1 day, 400× magnification) it was “asymmetrical morphology”. The molecule further returned a resting membrane potential in test [3] (current clamp) of −50 mV. In addition, the “spontaneous action potential firing frequency” value in test [3] (current clamp) came out at 20 s⁻¹. In test [3] (current clamp, measured from resting membrane potential), this molecule yielded an action potential amplitude of 63.4±17.4 mV. This molecule had an action potential half-width in test [3] (current clamp, n=768 events) of 19.25 ± 0.73 ms. Moreover, in test [3] (current clamp, n=768 events), the “action potential rise time” value was found to be 3.39 ± 0.11 ms. Besides, the “fit of decay of postsynaptic currents” value is reported as “single exponential function” in test [3] (setting [6]) and “two exponentials” in test [3] (functional neurons in culture for 15 days). The “half rise time of some spontaneous post-synaptic currents” value in test [3] (setting [6]) was “around 2 ms”. The “treated cells showing action potential by electrophysiology” value in test [3] (n=25) is “one hundred”. In addition, the postsynaptic current amplitude in test [3] (first set, n=171 events) is 29.9±1.3 pA; in test [3] (second set, n=99 events), 6.1±0.2 pA. The “postsynaptic current decay time” value in test [3] (first set, n=171 events) was 36.5 ± 1.0 ms; in test [3] (second set, n=99 events) it was 31.3 ± 1.3 ms. Moreover, the postsynaptic current frequency in test [3] (first set, n=171 events) is 2.49 s⁻¹; in test [3] (second set, n=99 events), 1.24 s⁻¹. The “postsynaptic current half rise time” value stood at 12.96 ± 0.89 ms in test [3] (first set, n=171 events) and 1.84 ± 0.13 ms in test [3] (second set, n=99 events). Besides, the synaptophysin fluorescence result in test [4] (6-day treatment) is on record as “slight fluorescence”; in test [4] (day 9 of treatment) it was “brighter fluorescence”; in test [4] (up to day 12 of treatment) it was “increased”. In test [4] (all treated cells), the “glial fibrillary acidic protein (GFAP) staining” value is on record as “negative”. Moreover, the MAP2 staining result in test [4] (each time point: day 6, day 9 and day 12 of treatment, ten experiments) is given as “bright”. For the same molecule, in test [4] (n=100), the “percentage of functional neurons developed, by immunostaining for neurofilament, MAP2 and nestin” value is on record as 80±10 percentage. Besides, in test [5], the “PPT-I in situ hybridization fluorescence in cell bodies of neurons” value is given as “bright fluorescence”.

B1: IL-1α: Recombinant human IL-1α (rhIL-1α) provided by Hoffman LaRoche (protein, UniProt P01583 113-271, looked up)
Interleukin-1 alpha: SAPFSFLSNVKYNFMRIIKYEFILNDALNQSIIRANDQYLTAAALHNLDEAVKFDMGAYKSSKDDAKITVILRISKTQLYVTAQDEDQPVLLKEMPEIPKTITGSETNLLFFWETHGTKNYFTSVAHPNLFIATKQDYWVCLAGGPPSITDFQILENQA
With B1, the “fluorescence intensity for SP” value in test [1] (MSC treated with retinoic acid 6 days, stimulated with 10 ng/mL IL-1α for 16 hours, six experiments) was “bright fluorescence intensity”.
